In PMC4387200 (Toxicology and applied pharmacology, 2015):
Like-named read-outs stand apart in the source and are kept apart here.

Experiments:
Human PXR [1] = molecular target: T1, Human PXR (Homo sapiens, UniProt O75469); conditions: maximum response as percentage of the maximum response to rifampicin
T1 sequence (O75469 107-434): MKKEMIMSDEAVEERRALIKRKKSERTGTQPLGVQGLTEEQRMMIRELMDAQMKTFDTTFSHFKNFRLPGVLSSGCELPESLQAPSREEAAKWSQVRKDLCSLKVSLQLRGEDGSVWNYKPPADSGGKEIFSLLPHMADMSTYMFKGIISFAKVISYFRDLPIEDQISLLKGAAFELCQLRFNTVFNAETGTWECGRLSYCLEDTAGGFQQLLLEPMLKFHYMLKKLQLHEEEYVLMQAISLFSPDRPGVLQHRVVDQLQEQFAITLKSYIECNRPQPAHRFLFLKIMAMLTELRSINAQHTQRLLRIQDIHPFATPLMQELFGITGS

Polar bear PXR [2] = conditions: for Polar bear PXR Relative activation (%): maximum response as percentage of the maximum response to rifampicin; for Relative max induction (polar bear vs human): ratio of maximum induction via pbPXR to hPXR
Human PXR [3] = molecular target: T1, Human PXR
Polar bear PXR [4] = test system: Polar bear PXR
Human PXR [5] = molecular target: T1, Human PXR; assay: in vitro
polar bear PXR [6] = assay: in vitro

Compound	Human PXR Relative activation (%) (Human PXR [1])	Polar bear PXR Relative activation (%) (Polar bear PXR [2])	Relative max induction (polar bear vs human) (Polar bear PXR [2])	fold induction (Human PXR [5])	fold induction (polar bear PXR [6])	also measured
Clc1cc(Cl)c(-c2c(Cl)cc(Cl)c(Cl)c2Cl)cc1Cl [PCB 183]	28%	31%	1.1			
Brc1ccc(Oc2ccc(Br)cc2Br)c(Br)c1 [BDE 47]	59%	16%	0.3			Human PXR RECh20 (Human PXR [3]): 5 µM
CC(C)(c1cc(Br)c(O)c(Br)c1)c1cc(Br)c(O)c(Br)c1 [Tetrabromobisphenol A (TBBPA), Tetrabromobisphenol A]						Polar bear PXR RECh20 (Polar bear PXR [4]): 35 µM; Polar bear PXR Relative activation (%) (Polar bear PXR [4]): 39%; Relative max induction (polar bear vs human) (Polar bear PXR [4]): 1.2; Human PXR RECh20 (Human PXR [3]): 29 µM; Human PXR Relative activation (%) (Human PXR [3]): 32%
Hexabromocyclododecane [HBCD technical mixture]						Polar bear PXR RECh20 (Polar bear PXR [4]): 1.7 µM
Clc1ccc(C(c2ccc(Cl)cc2)C(Cl)(Cl)Cl)cc1 [4,4′-DDT, Dichlorodiphenyltrichloroethane]	53%	42%	0.8			Polar bear PXR RECh20 (Polar bear PXR [4]): 11 µM; Human PXR RECh20 (Human PXR [3]): 9.3 µM
Clc1ccc(Cl)c(-c2cc(Cl)ccc2Cl)c1 [PCB 52]	11%	10%	0.9			
Clc1cccc(Cl)c1Cl [1,2,3-trichlorobenzene (1,2,3-TCB), 1,2,3-trichlorobenzene]	9%	9%	0.9	0.9 ± 0.1	0.9 ± 0.3	
O=C(O)C(F)(F)C(F)(F)C(F)(F)C(F)(F)C(F)(F)C(F)(F)C(F)(F)C(F)(F)F [Perfluorononanoic acid (PFNA), Perfluorononanoic acid]	11%	10%	0.9			
Clc1ccc(-c2ccc(Cl)cc2Cl)cc1 [PCB 28]	19%	12%	0.6			
Clc1ccc(-c2ccc(Cl)cc2Cl)c(Cl)c1 [PCB 47]	27%	14%	0.5			
Brc1ccc(Oc2cc(Br)c(Br)cc2Br)c(Br)c1 [BDE 99]	52%	16%	0.3			Human PXR RECh20 (Human PXR [3]): 4.8 µM
CO[C@H]1/C=C/O[C@@]2(C)Oc3c(C)c(O)c4c(O)c(c(/C=N/N5CCN(C)CC5)c(O)c4c3C2=O)NC(=O)/C(C)=C\C=C\[C@H](C)[C@H](O)[C@@H](C)[C@@H](O)[C@@H](C)[C@H](OC(C)=O)[C@@H]1C [Rifampicin, reference compound]						Polar bear PXR RECh20 (Polar bear PXR [4]; polar bear): 1.1 µM; Human PXR RECh20 (Human PXR [3]; human): 0.46 µM
Clc1cc(Cl)c(-c2c(Cl)cc(Cl)c(Cl)c2Cl)c(Cl)c1 [PCB 184]	33%	19%	0.6			
COc1ccc2[nH]c([S+]([O-])Cc3ncc(C)c(OC)c3C)nc2c1 (stereo not shown) [Omeprazole, reference compound]				4.3 ± 0.3	1.3 ± 0.3	Polar bear PXR Relative activation (%) (Polar bear PXR [4]; polar bear): 13%; Relative max induction (polar bear vs human) (Polar bear PXR [4]; polar bear and human): 0.3; Human PXR RECh20 (Human PXR [3]; human): 9.1 µM; Human PXR Relative activation (%) (Human PXR [3]; human): 44%
Brc1ccc(Oc2ccc(Br)cc2Br)cc1 [BDE 28]	31%	9%	0.3			Human PXR RECh20 (Human PXR [3]): 11 µM
NC(=O)N1c2ccccc2C=Cc2ccccc21 [Carbamazepine, reference compound]				2.3 ± 0.3	1.4 ± 0.3	Polar bear PXR Relative activation (%) (Polar bear PXR [4]; polar bear): 14%; Relative max induction (polar bear vs human) (Polar bear PXR [4]; polar bear and human): 0.6; Human PXR RECh20 (Human PXR [3]; human): 13 µM; Human PXR Relative activation (%) (Human PXR [3]; human): 23%
C[Si]1(C)O[Si](C)(C)O[Si](C)(C)O[Si](C)(C)O[Si](C)(C)O1 [Decamethylcyclopentasiloxane (D5), Decamethylcyclopentasiloxane]	22%	16%	0.7	2.2 ± 0.2	1.6 ± 0.2	Human PXR RECh20 (Human PXR [3]; human): 35 µM
Brc1cc(Br)c(Oc2cc(Br)c(Br)cc2Br)cc1Br [BDE 153]	45%	17%	0.4	4.4 ± 0.2	1.7 ± 0.1	Human PXR RECh20 (Human PXR [3]; human): 3.9 µM

Compound	Human PXR Relative activation (%) (Human PXR [1])	Polar bear PXR Relative activation (%) (Polar bear PXR [2])	Relative max induction (polar bear vs human) (Polar bear PXR [2])	fold induction (Human PXR [5])	fold induction (polar bear PXR [6])	also measured
Clc1ccc(Cl)c(-c2cc(Cl)c(Cl)cc2Cl)c1 [PCB 101]	34%	19%	0.6			
Clc1ccc(-c2cc(Cl)c(Cl)cc2Cl)cc1Cl [PCB 118]	25%	14%	0.6			Human PXR RECh20 (Human PXR [3]): 34 µM
O=c1cc(-c2ccccc2)oc2ccc3ccccc3c12 [β-naphtoflavone (BNF), β-naphtoflavone, reference compound]	28%	21%	0.8			Polar bear PXR RECh20 (Polar bear PXR [4]): 0.69 µM; Human PXR RECh20 (Human PXR [3]): 0.069 µM
Clc1ccc(-c2c(Cl)c(Cl)c(Cl)c(Cl)c2Cl)cc1Cl [PCB 190]	46%	18%	0.4			
Clc1cc(Cl)c(-c2ccc(Cl)c(Cl)c2Cl)cc1Cl [PCB 138]	12%	11%	0.9			
Clc1ccc(Cl)c(Cl)c1 [1,2,4-trichlorobenzene (1,2,4-TCB), 1,2,4-trichlorobenzene]	10%	9%	0.9	1 ± 0.1	0.9 ± 0.3	
Brc1c(Br)c(Br)c(Oc2c(Br)c(Br)c(Br)c(Br)c2Br)c(Br)c1Br [BDE 209]	26%	19%	0.7			Human PXR RECh20 (Human PXR [3]): 16 µM
C[Si]1(C)O[Si](C)(C)O[Si](C)(C)O1 [Hexamethylcyclotrisiloxane (D3), Hexamethylcyclotrisiloxane]				1.7 ± 0.2	1.1 ± 0.2	Polar bear PXR Relative activation (%) (Polar bear PXR [4]; polar bear): 11%; Relative max induction (polar bear vs human) (Polar bear PXR [4]; polar bear and human): 0.6; Human PXR Relative activation (%) (Human PXR [3]; human): 17%
Brc1ccc(Oc2c(Br)cc(Br)cc2Br)c(Br)c1 [BDE 100]	39%	14%	0.4	3.8 ± 0.3	1.3 ± 0.2	Human PXR RECh20 (Human PXR [3]; human): 6.6 µM
Clc1cc(Cl)c(-c2cccc(Cl)c2Cl)cc1Cl [PCB 97]	25%	28%	1.1			
Oc1c(Cl)c(Cl)c(Cl)c(Cl)c1Cl [Pentachlorophenol]	11%			1 ± 0.2	0.9 ± 0.3	Polar bear PXR Relative activation (%) (Polar bear PXR [4]; polar bear): 9%; Relative max induction (polar bear vs human) (Polar bear PXR [4]; polar bear and human): 0.9
C[Si]1(C)O[Si](C)(C)O[Si](C)(C)O[Si](C)(C)O1 [Octamethylcyclotetrasiloxane (D4), Octamethylcyclotetrasiloxane]	44%	11%	0.3	4.3 ± 0.3	1.1 ± 0.4	
Cl[C@H]1[C@H](Cl)[C@H](Cl)[C@@H](Cl)[C@H](Cl)[C@H]1Cl [α-hexachlorocyclohexane (α-HCH), α-hexachlorocyclohexane]	57%	13%	0.2	5.6 ± 1.5	1.3 ± 0.8	Human PXR RECh20 (Human PXR [3]; human): 3.8 µM
C=CC1(C)OC(=O)N(c2cc(Cl)cc(Cl)c2)C1=O (stereo not shown) [Vinclozolin]	38%	11%	0.3	3.7 ± 0.2	1.1 ± 0.2	Human PXR RECh20 (Human PXR [3]; human): 44 µM
Clc1ccc(-c2ccc(Cl)c(Cl)c2Cl)cc1 [PCB 60]	10%	8%	0.7			
Clc1ccc(Cl)c(-c2c(Cl)c(Cl)cc(Cl)c2Cl)c1 [PCB 151]	72%	15%	0.2			
Clc1ccccc1C(c1ccccc1)(c1ccccc1)n1ccnc1 [Clotrimazole, reference compound]						Polar bear PXR RECh20 (Polar bear PXR [4]; polar bear): 0.63 µM
Clc1ccc(-c2cc(Cl)c(Cl)c(Cl)c2Cl)c(Cl)c1Cl [PCB 170]	24%	15%	0.6			
